According to patent US20150031760A1, “PHARMACEUTICAL COMPOSITION FOR PREVENTING OR TREATING NERVOUS SYSTEM DISORDERS COMPRISING SULFURETIN OR PHARMACEUTICALLY ACCEPTABLE SALT THEREOF” (Research and Business Foundation SUNGKYUNKWAN UNIVERSITY, priority 2010, published 2015):
Like-named read-outs stand apart in the source and are kept apart here.

Key:
caspase-3 = experiment: Western blot, caspase-3 expression; format: cell-based, human; conditions: SH-SY5Y cells
Method: (§1) The incubator was maintained at a temperature of 37° C., and a mixed gas of 95% air and 5% CO2 was continuously supplied thereto to provide suitable conditions for cell culture. The cells were cultured in a 6-well plate or a 96-well plate at each of densities of 1×10^6 and 2×10^4 cells/well 24 hours before the experiment. […] Sulfuretin was used in ethanol and used at a final concentration of 0.1% or less.
(§2) In order to identify the effect of sulfuretin on the expression of proteins related to dementia, Alzheimer's disease, Parkinson's disease and strokes, a Western blot test was carried out.
(§3) After 24 hours, the supernatant of each well was collected and centrifuged at 400 g for 3 minutes, and the cells were washed with cold PBS and lysed with 100 μl of T-PER lysis buffer (Thermo, USA) for 30 minutes. The lysates were centrifuged at 10000 g at 4° C. for 15 minutes, and the supernatants were stored at […] until use as test samples. Proteins were quantitatively analyzed using a BCA assay kit (Thermo, USA) and separated within 8.5-12% SDS gel and then transferred to PVDF membranes. To examine the expression of the proteins, the development of fluorescence was analyzed by enhanced chemiluminescence (ECL). Specifically, the membrane was blocked with 5% skimmed non-fat milk for 1 hour and labeled with the primary antibodies, PARP, caspase-3, phospho-p38, phospho-JNK and β-actin at 4° C. overnight. Then, the membrane was washed three times with Tris-tween buffered saline (TTBS), and then labeled with horseradish peroxidase (HRP)-conjugated anti-rabbit and anti-mouse secondary antibodies at room temperature for 1 hour. Then, the membrane was washed five times with TTBS for 10 minutes. The washed film was developed by ECL using x-ray films, and concentrations were quantitatively analyzed using quantitative analysis program (Fujifilm, Japan).

SH-SY5Y cells [1] = experiment: LDH assay, amyloid beta25-35-induced cytotoxicity; format: cell-based, human; conditions: pretreatment with sulfuretin at 2.5, 5, 10 and 20 μM; 20 μM amyloid beta25-35 for 24 h (p<0.001)
SH-SY5Y cells [2] = experiment: MTT (cell viability) test, induced cell death in SH-SY5Y cells; conditions: Homo sapiens, SH-SY5Y; for viability at 0.1 µg/mL: sulfuretin 0.1 μg/ml; for viability at 0.5 µg/mL: sulfuretin 0.5 μg/ml; for viability at 1 µg/mL: sulfuretin 1 μg/ml; for viability at 5 µg/mL: sulfuretin 5 μg/ml
Method: as §1
To measure cell viability, an MTT reduction assay was used. An MTT solution was added to each well of the 96-well plate (in which the cells have been cultured) to a final concentration of 0.5 mg/ml. The plate was incubated in an incubator for 2 hours, and the medium and the MIT solution were removed, after which DMSO was added thereto and stirred. When DMSO was completely dissolved, the UV absorbance at 540 nm was measured using a microplate reader (Molecular device, USA).
The measured absorbance was substituted into the following equation to calculate cell viability:
Cell viability (%)=[(O.D. of control−O.D. of test group)/O.D. of control]×100

PARP = experiment: Western blot, PARP expression; format: cell-based, human; conditions: SH-SY5Y cells
Method: as §1, §2, §3

phospho-JNK = experiment: Western blot, phospho-JNK expression; format: cell-based, human; conditions: SH-SY5Y cells
Method: as §1, §2, §3

mice [3] = experiment: Scopolamine-induced learning and memory deficits, step-through passive avoidance test; format: in vivo
Method: (§4) Male ICR mice (4-weeks-old, 18-20 g) were purchased from Koatech Co., Ltd. (Pyongtaek, Korea). Mice were housed 10 per cage, allowed access to water and food ad libitum, and maintained in constant temperature (23±1° C.) and humidity (55±5%) conditions under a 12 hour light/dark cycle (lights on 07:00 to 19:00 h). All experiments were conducted in accord with the NIH Guide for the Care and Use of Laboratory Animals and with the approval of the Institutional Animal Care and Use Committee of Sungkyunkwan University.
Assessment of the training or test trials of the passive avoidance test was carried out in identical illuminated and non-illuminated compartments (12×10×12 cm) containing 2-mm stainless steel rods spaced 0.5 cm apart. A 50 W lamp positioned 1 meter above both chambers illuminated the apparatuses. Briefly, the mice underwent two separate trials, a training trial and a test trial 24 hours later. For the training trial, mice were initially placed in the clear chamber. When they entered the dark chamber, the door closed and a 3-sec electrical foot shock (0.5 mA) was delivered through the stainless steel rods. One hour before each training trial, mice were given sulfretin (0.25, 0.5, or 1 mg/kg, p.o.). After 30 minutes, memory impairment was induced by administering scopolamine (0.5 mg/kg, i.p.). Twenty-four hours after the training trial, mice were placed in the illuminated chamber for the test trial. The time for the mouse to enter the dark compartment after the door opening was defined as latency for both training and test trials. Latencies were recorded for up to 300 s. To avoid a ceiling effect in unimpaired animals, sulfuretin alone was administered 1 hour before the training trial without scopolamine treatment. The intensity of electrical foot shock was set at 0.25 mA for 3 seconds. This lower intensity shock allowed for a behavioral window through which to detect any enhancing effect of sulfuretin.

mice [4] = experiment: Scopolamine-induced cognitive impairment, spontaneous alternation behavior Y-maze test; format: in vivo; conditions: sulfuretin 1 mg/kg, p.o., one hour before test; scopolamine 0.5 mg/kg, i.p.
Method: as §4
The spontaneous alternation behavior was measured by Y-maze which consists of a horizontal maze (30 cm long and 5 cm wide, with walls 12 cm high) with three arms (labeled A, B, and C). The maze floor and walls are constructed of dark grey, polyvinyl plastic. Mice were initially placed within one arm, and the number of alternations (i.e., consecutive entry sequences of ABC, CAB, or BCA but not BAB) and the number of arm entries were manually recorded for each mouse over an 8 minutes period. One hour before each test, the mice were given sulfuretin (0.25, 0.5, or 1 mg/kg, p.o.). After 30 minutes, memory impairment was induced by administering scopolamine (0.5 mg/kg, i.p.). […] The percentage alternation was calculated according to the following equation: Percentage alternation=[(Number of alternations)/(Total arm entries−2)]×100. […]

[5] = hydrogen peroxide + sulfuretin 0.1 μg/ml
[6] = hydrogen peroxide + sulfuretin 0.5 μg/ml
[7] = hydrogen peroxide + sulfuretin 1 μg/ml
[8] = read-out: cell viability, 6-hydroxydopamine-induced cell death
[9] = read-out: cell viability, beta-amyloid-induced cell death
[10] = read-out: cell viability, hydrogen peroxide-induced cell death

What does the source list for `O=C1/C(=C/c2ccc(O)c(O)c2)Oc2cc(O)ccc21` [sulfuretin]?
caspase-3 expression (caspase-3; [5]): ≥ 24%; caspase-3 expression (caspase-3; [6]): ≥ 51%; caspase-3 expression (caspase-3; [7]): ≥ 127%; LDH activity (LDH release) (SH-SY5Y cells [1]): significantly decreased; viability at 0.1 µg/mL (SH-SY5Y cells [2]; [8]): ≥ 87%; viability at 0.5 µg/mL (SH-SY5Y cells [2]; [8]): ≥ 97%; viability at 1 µg/mL (SH-SY5Y cells [2]; [8]): ≥ 112%; viability at 5 µg/mL (SH-SY5Y cells [2]; [8]): ≥ 140%; viability at 0.1 µg/mL (SH-SY5Y cells [2]; [9]): ≥ 58%; viability at 0.5 µg/mL (SH-SY5Y cells [2]; [9]): ≥ 64%; viability at 1 µg/mL (SH-SY5Y cells [2]; [9]): ≥ 80%; viability at 5 µg/mL (SH-SY5Y cells [2]; [9]): ≥ 97%; viability at 0.1 µg/mL (SH-SY5Y cells [2]; [10]): ≥ 74%; viability at 0.5 µg/mL (SH-SY5Y cells [2]; [10]): ≥ 97%; viability at 1 µg/mL (SH-SY5Y cells [2]; [10]): ≥ 119%; viability at 5 µg/mL (SH-SY5Y cells [2]; [10]): ≥ 103%; PARP expression (PARP; [5]): ≥ 70%; PARP expression (PARP; [6]): ≥ 92%; PARP expression (PARP; [7]): ≥ 99%; phospho-JNK expression (phospho-JNK; [5]): ≤ 261%; phospho-JNK expression (phospho-JNK; [6]): ≤ 204%; phospho-JNK expression (phospho-JNK; [7]): ≤ 120%; scopolamine-induced decrease of step-through latency time (test trial) (mice [3]; sulfuretin 1 mg/kg, p.o., one hour before training trial, scopolamine 0.5 mg/kg, i.p. (p<0.05)): blocked this decrease; latencies during the training trials (mice [3]; sulfuretin p.o., training trial): did not change; decrease of spontaneous alternation behavior induced by scopolamine (mice [4]): significantly inhibited
